From patent publication US4284631A, “7-Substituted cephem compounds and pharmaceutical antibacterial compositions containing them” (Fujisawa Pharmaceutical Co., Ltd., priority 1978, dated 1981)
≈ marks a conversion by molar mass, not a printed value. Counter-ions that a name gives are not always drawn.

How the values were obtained:
Experiment in all cases: In vitro antibacterial activity, two-fold agar-plate dilution method
Format in all cases: cell-based
Klebsiella pneumoniae 20 = conditions: HI-agar, 37° C., 20 hours, read-out: MIC (minimal inhibitory concentration)
Procedure: (§1) In vitro antibacterial activity was determined by the two-fold agar-plate dilution method as described below.
(§2) One loopful of the 100-fold dilution of an overnight culture of each test strain in Trypticasesoy broth was streaked on heart infusion agar (HI-agar) containing graded concentrations of the test compound and incubated at 37° C. for 20 hours. The minimal inhibitory concentration (MIC) was expressed in μg/ml.

Proteus mirabilis 18 = conditions: HI-agar, 37° C., 20 hours, read-out: MIC (minimal inhibitory concentration)
Procedure: as §1, §2

[1] = system: Proteus vulgaris IAM-1025; conditions: IAM1025, HI-agar, 37° C., 20 hours, read-out: MIC (minimal inhibitory concentration)
Procedure: as §1, §2

[2] = system: Staphylococcus aureus 209 P JC-1; conditions: 209PJC1, HI-agar, 37° C., 20 hours, read-out: MIC (minimal inhibitory concentration)
Procedure: as §1, §2

[3] = system: Escherichia coli NIHJ JC-2; conditions: NIHJJC2, HI-agar, 37° C., 20 hours, read-out: MIC (minimal inhibitory concentration)
Procedure: as §1, §2

[4] = system: Pseudomonus aeruginosa NCTC-10490; conditions: HI-agar, 37° C., 20 hours, read-out: MIC (minimal inhibitory concentration)
Procedure: as §1, §2

Row | MIC (Klebsiella pneumoniae 20) [µg/mL] | MIC (Proteus mirabilis 18) [µg/mL] | MIC [1] [µg/mL] | MIC [2] [µg/mL] | MIC [3] [µg/mL] | MIC [4] [µg/mL] | Structure (SMILES)
1 | 0.025 (≈ 0.0605 µM) | 0.025 (≈ 0.0605 µM) | 0.025 (≈ 0.0605 µM) | 12.5 (≈ 30.2 µM) | 0.05 (≈ 0.121 µM) | 3.13 (≈ 7.57 µM) | Nc1nc(/C(=N/OCCO)C(=O)NC2C(=O)N3C(C(=O)O)=CCSC23)cs1 (stereo not drawn) [Compound 2, 7-[2-(2-aminothiazol-4-yl)-2-(2-hydroxyethoxyimino)acetamido]-3-cephem-4-carboxylic acid (syn isomer)]
2 | 0.05 | 0.1 | 0.05 | 0.78 | 0.1 | 3.13 | NCc1ccc(CO/N=C(\C(=O)NC2C(=O)N3C(C(=O)O)=CCSC23)c2csc(N)n2)cc1 (stereo not drawn) [Compound 5, 7-[2-(2-aminothiazol-4-yl)-2-(4-aminomethylbenzyloxyimino)acetamido]-3-cephem-4-carboxylic acid dihydrochloride (syn isomer)]
3 | 0.025 (≈ 0.0566 µM) | 0.2 (≈ 0.453 µM) | 0.025 (≈ 0.0566 µM) | 3.13 (≈ 7.09 µM) | 0.2 (≈ 0.453 µM) | 1.56 (≈ 3.53 µM) | CCOCCO/N=C(\C(=O)NC1C(=O)N2C(C(=O)O)=CCSC12)c1csc(N)n1 (stereo not drawn) [Compound 3, 7-[2-(2-aminothiazol-4-yl)-2-(2-ethoxyethoxyimino)acetamido]-3-cephem-4-carboxylic acid (syn isomer)]
4 | 0.025 (≈ 0.0582 µM) | 0.05 (≈ 0.116 µM) | 0.025 (≈ 0.0582 µM) | 1.56 (≈ 3.63 µM) | 0.05 (≈ 0.116 µM) | 1.56 (≈ 3.63 µM) | CSCO/N=C(\C(=O)NC1C(=O)N2C(C(=O)O)=CCSC12)c1csc(N)n1 (stereo not drawn) [Compound 4, 7-[2-(2-aminothiazol-4-yl)-2-(methylthiomethoxyimino)acetamido]-3-cephem-4-carboxylic acid (syn isomer)]
5 | 0.025 (≈ 0.0612 µM) | 0.025 (≈ 0.0612 µM) | 0.025 (≈ 0.0612 µM) | 6.25 (≈ 15.3 µM) | 0.05 (≈ 0.122 µM) | 1.56 (≈ 3.82 µM) | N#CCO/N=C(\C(=O)NC1C(=O)N2C(C(=O)O)=CCSC12)c1csc(N)n1 (stereo not drawn) [Compound 1, 7-[2-(2-aminothiazol-4-yl)-2-cyanomethoxyiminoacetamido]-3-cephem-4-carboxylic acid (syn isomer)]
6 | 0.025 (≈ 0.0555 µM) | 0.1 (≈ 0.222 µM) | 0.025 (≈ 0.0555 µM) | 3.13 (≈ 6.95 µM) | 0.1 (≈ 0.222 µM) | 1.56 (≈ 3.46 µM) | Nc1nc(/C(=N/OCc2ccon2)C(=O)NC2C(=O)N3C(C(=O)O)=CCSC23)cs1 (stereo not drawn) [Compound 6, 7-[2-(2-aminothiazol-4-yl)-2-(3-isoxazolylmethoxyimino)acetamido]-3-cephem-4-carboxylic acid (syn isomer)]
